In brackets after ≈: the same amount, converted by molar mass.
What was measured:
[1] = Solubility in 50 mM phosphate buffer at pH 7.4; assay type: physicochemical; details: aqueous buffer
[2] = tested on: HFF (normal human foreskin fibroblast); assay: Methylene Blue Growth Inhibition Assay; assay type: cell-based; details: 72 h, 3 days
Procedure: (§1) Tumor cell lines used in this assay were BT474 (human breast carcinoma) and LNCaP (lymph node metastasis of prostate cancer). HFF (normal human foreskin fibroblast) was also included. All cell lines were cultured in RPMI 1640 media (Invitrogen Corporation 22400-071) containing 10% Fetal Bovine Serum (FBS) at 37° C. in a humidified 5% CO2 incubator. Cells were harvested using trypsin/EDTA, counted using a hemacytometer and plated in 96-well tissue culture plates (Costar 35-3075), 100 uL per well, at the following densities: BT474 15,000 cells/well, LNCaP 5,000 cells/well and HFF 5,000 cells/well. 10 mM stocks of compounds in DMSO were serially diluted in DMSO through nine 3-fold dilutions in 96-well plates (Costar Corning 3363), and stored at −80C. The next day, compound dilutions were thawed and 4 uL of each transferred to 662 uL RPMI 1640+100 ug/mL gentamicin, resulting in twice the final required test concentrations. 100 uL of compounds diluted in RPMI 1640 were added to all cell lines. The final concentration of DMSO in all wells, including controls, was 0.3%. Cells were incubated at 37C, 5% CO2 for 3 days. Medium was removed by aspiration. Cell biomass was estimated by staining cells with 80 uL methylene blue (Sigma M9140, 0.5% in 50:50 ethanol:water), and incubating at room temperature for 1 hour. Stain was aspirated and the plates rinsed by immersion in water, then air-dried. Stain was released from cells by adding 100 uL of solubilizing solution (1% N-lauroyl sarcosine, sodium salt, Sigma L5125, in PBS) and incubating at room temperature for at least 30 minutes. Plates were shaken and the optical density at 620 nm was measured on a microplate reader. Percent inhibition of cell growth was calculated relative to vehicle-treated control wells. Concentration of compound that inhibits 50% of cell growth (IC50) was interpolated using non-linear regression (Levenberg-Marquadt) and the equation, y=Vmax*(1−(x̂n/K̂n+x̂n)))+Y2. [Ref: Mager, M. E. (1972) Data Analysis in Biochemistry and Biophysics. New York: Academic Press]

[3] = tested on: BT474 (human breast carcinoma); assay: Methylene Blue Growth Inhibition Assay; assay type: cell-based; details: BT-474, 72 h, BT474, 3 days
Procedure: as §1

[4] = tested on: LNCaP (lymph node metastasis of prostate cancer); assay: Methylene Blue Growth Inhibition Assay; assay type: cell-based; details: Homo sapiens, 72 h, 3 days
Procedure: as §1

CCn1c(-c2nonc2N)nc2c(C#CC(C)(C)O)ncc(OCC(F)CN)c21 (single isomer, unassigned) [Example 17, 4-[7-[(3-amino-2-(−)-fluoropropyl)oxy]-2-(4-amino-1,2,5-oxadiazol-3-yl)-1-ethyl-1H-imidazo[4,5-c]pyridin-4-yl]-2-methyl-3-butyn-2-ol]
solubility [1]: 92 µM (≈ 37.1 µg/mL) | IC50 [2]: 6.25 µM | IC50 [3]: 0.022 µM | IC50 [4]: 0.012 µM

CCn1c(-c2nonc2N)nc2c(C#CC(C)(C)O)ncc(OCCC(N)C3CCSCC3)c21 (single isomer, unassigned; (-)) [Example 14, (−)-4-(2-(4-amino-1,2,5-oxadiazol-3-yl)-7-{[3-amino-3-(tetrahydro-2H-thiopyran-4-yl)propyl]oxy}-1-ethyl-1H-imidazo[4,5-c]pyridin-4-yl)-2-methyl-3-butyn-2-ol]
solubility [1]: 151 µM (≈ 73.3 µg/mL) | IC50 [2]: 19.2 µM | IC50 [3]: 0.264 µM | IC50 [4]: 0.056 µM

CCn1c(-c2nonc2N)nc2c(-c3ccccc3)ncc(OCCCN3CCOCC3)c21 [Compound R, 4-(1-ethyl-7-{[3-(4-morpholinyl)propyl]oxy}-4-phenyl-1H-imidazo[4,5-c]pyridin-2-yl)-1,2,5-oxadiazol-3-amine, reference compound]
IC50 [2]: 19.9 µM

CCn1c(-c2nonc2N)nc2c(-c3ccccc3)ncc(OCC(O)CN3CCOCC3)c21 (stereo not shown) [Compound S, 1-{[2-(4-amino-1,2,5-oxadiazol-3-yl)-1-ethyl-4-phenyl-1H-imidazo[4,5-c]pyridin-7-yl]oxy}-3-(4-morpholinyl)-2-propanol, reference compound]
IC50 [2]: > 30 µM

CCn1c(-c2nonc2N)nc2c(-c3ccccc3)ncc(OCCN3CCOCC3)c21 [Compound T, 4-(1-ethyl-7-([2-(4-morpholinyl)ethyl]oxy)-4-phenyl-1H-imidazo[4,5-c]pyridin-2-yl)-1,2,5-oxadiazol-3-amine, reference compound]
IC50 [2]: 18.9 µM

CCn1c(-c2nonc2N)nc2cncc(OC3CCNCC3)c21 [Compound U, 4-[1-ethyl-7-(piperidin-4-yloxy)-1H-imidazo[4,5-c]pyridine-2-yl]-furazan-3-ylamine, reference compound]
IC50 [2]: 6.47 µM

CCn1c(-c2nonc2N)nc2c(-c3ccccc3)ncc(OCC3CCCNC3)c21 (stereo not shown) [Compound V, 4-{1-ethyl-4-phenyl-7-[(3-piperidinylmethyl)oxy]-1H-imidazo-[4,5-c]pyridin-2-yl}-1,2,5-oxadiazol-3-amine, reference compound]
IC50 [2]: 0.57 µM

CCn1c(-c2nonc2N)nc2c(C#CC(C)(C)O)ncc(OCCCCN)c21 [Compound W, 4-[7-[(4-aminobutyl)oxy]-2-(4-amino-1,2,5-oxadiazol-3-yl)-1-ethyl-1H-imidazo[4,5-c]pyridin-4-yl}-2-methyl-3-butyn-2-ol, reference compound]
IC50 [2]: 22.1 µM

CCn1c(-c2nonc2N)nc2c(C#CC(C)(C)O)ncc(OCCCN)c21 [Compound X, 4-{2-(4-amino-1,2,5-oxadiazol-3-yl)-7-[(3-aminopropyl)oxy]-1-ethyl-1H-imidazo[4,5-c]pyridin-4-yl}-2-methyl-3-butyn-2-ol, reference compound]
IC50 [2]: 18.1 µM

CCn1c(-c2nonc2N)nc2c(C#CC(C)(C)O)ncc(OCC3CCNCC3)c21 [Compound Y, 4-{2-(4-amino-1,2,5-oxadiazol-3-yl)-1-ethyl-7-[(4-piperidinylmethyl)oxy]-1H-imidazo[4,5-c]pyridin-4-yl}-2-methyl-3-butyn-2-ol, reference compound]
IC50 [2]: > 30 µM

CCn1c(-c2nonc2N)nc2c(C#CC(C)(C)O)ncc(OCCCNCCc3ccc(OC)cc3)c21 [Compound Z, 4-(2-(4-amino-1,2,5-oxadiazol-3-yl)-1-ethyl-7-{[3-({2-[4-(methyloxy)phenyl]ethyl}amino)propyl]oxy}-1H-imidazo[4,5-c]pyridin-4-yl)-2-methyl-3-butyn-2-ol, reference compound]
IC50 [2]: 5.51 µM

CCn1c(-c2nonc2N)nc2c(C#CC(C)(C)O)ncc(OCCCNC3CCCC3)c21 [Example 3, 4-(2-(4-amino-1,2,5-oxadiazol-3-yl)-7-{[3-(cyclopentylamino)propyl]oxy}-1-ethyl-1H-imidazo[4,5-c]pyridin-4-yl)-2-methyl-3-butyn-2-ol]
solubility [1]: 210 µM (≈ 95.2 µg/mL) | IC50 [2]: > 30 µM | IC50 [3]: 0.295 µM | IC50 [4]: 0.052 µM

CCn1c(-c2nonc2N)nc2c(C#CC(C)(C)O)ncc(OCC[C@@H](N)C(C)C)c21 [Example 4, 4-[7-{[(3R)-3-amino-4-methylpentyl]oxy}-2-(4-amino-1,2,5-oxadiazol-3-yl)-1-ethyl-1H-imidazo[4,5-c]pyridin-4-yl]-2-methyl-3-butyn-2-ol]
solubility [1]: 206 µM (≈ 88.1 µg/mL) | IC50 [2]: 8.1 µM | IC50 [3]: 0.171 µM | IC50 [4]: 0.036 µM

CCn1c(-c2nonc2N)nc2c(C#CC(C)(C)O)ncc(OCCCNC3CCC3)c21 [Example 5, 4-(2-(4-amino-1,2,5-oxadiazol-3-yl)-7-{[3-(cyclobutylamino)propyl]oxy}-1-ethyl-1H-imidazo[4,5-c]pyridin-4-yl)-2-methyl-3-butyn-2-ol]
solubility [1]: 86 µM (≈ 37.8 µg/mL) | IC50 [2]: 25.9 µM | IC50 [3]: 0.508 µM | IC50 [4]: 0.058 µM

CCn1c(-c2nonc2N)nc2c(C#CC(C)(C)O)ncc(OC[C@@H](C)CNC3CC3)c21 [Example 6, 4-(2-(4-amino-1,2,5-oxadiazol-3-yl)-7-{[(2S)-3-(cyclopropylamino)-2-methylpropyl]oxy}-1-ethyl-1H-imidazo[4,5-c]pyridin-4-yl)-2-methyl-3-butyn-2-ol]
solubility [1]: 27 µM (≈ 11.9 µg/mL) | IC50 [2]: 11.5 µM | IC50 [3]: 0.593 µM | IC50 [4]: 0.066 µM

CCn1c(-c2nonc2N)nc2c(C#CC(C)(C)O)ncc(OCC(C)(C)CN)c21 [Example 7, 4-[7-[(3-amino-2,2-dimethylpropyl)oxy]-2-(4-amino-1,2,5-oxadiazol-3-yl)-1-ethyl-1H-imidazo[4,5-c]pyridin-4-yl]-2-methyl-3-butyn-2-ol]
solubility [1]: 209 µM (≈ 86.4 µg/mL) | IC50 [2]: 26.2 µM | IC50 [3]: 0.137 µM | IC50 [4]: 0.031 µM

CCn1c(-c2nonc2N)nc2c(C#CC(C)(C)O)ncc(OC[C@@H](C)CN)c21 [Example 8, 4-[7-{[(2S)-3-amino-2-methylpropyl]oxy}-2-(4-amino-1,2,5-oxadiazol-3-yl)-1-ethyl-1H-imidazo[4,5-c]pyridin-4-yl]-2-methyl-3-butyn-2-ol]
solubility [1]: 141 µM (≈ 56.3 µg/mL) | IC50 [2]: 22.4 µM | IC50 [3]: 0.202 µM | IC50 [4]: 0.053 µM

CCn1c(-c2nonc2N)nc2c(C#CC(C)(C)O)ncc(OCC[C@H](C)N)c21 [Example 9, 4-[7-{[(3S)-3-aminobutyl]oxy}-2-(4-amino-1,2,5-oxadiazol-3-yl)-1-ethyl-1H-imidazo[4,5-c]pyridin-4-yl]-2-methyl-3-butyn-2-ol]
solubility [1]: 119 µM (≈ 47.5 µg/mL) | IC50 [2]: 14.5 µM | IC50 [3]: 0.504 µM | IC50 [4]: 0.071 µM

CCn1c(-c2nonc2N)nc2c(C#CC(C)(C)O)ncc(OCCCNCC3CC3)c21 [Example 10, 4-[2-(4-amino-1,2,5-oxadiazol-3-yl)-7-({3-[(cyclopropylmethyl)amino]propyl}oxy)-1-ethyl-1H-imidazo[4,5-c]pyridin-4-yl]-2-methyl-3-butyn-2-ol]
solubility [1]: 140 µM (≈ 61.5 µg/mL) | IC50 [2]: 17.5 µM | IC50 [3]: 0.249 µM | IC50 [4]: 0.066 µM

CCCC(CN)COc1cnc(C#CC(C)(C)O)c2nc(-c3nonc3N)n(CC)c12 (stereo not shown) [Example 11, 4-[7-{[2-(aminomethyl)pentyl]oxy}-2-(4-amino-1,2,5-oxadiazol-3-yl)-1-ethyl-1H-imidazo[4,5-c]pyridin-4-yl]-2-methyl-3-butyn-2-ol]
solubility [1]: 203 µM (≈ 86.8 µg/mL) | IC50 [2]: 15 µM | IC50 [3]: 0.225 µM | IC50 [4]: 0.057 µM

CCn1c(-c2nonc2N)nc2c(C#CC(C)(C)O)ncc(OCC(CN)CC(C)C)c21 (stereo not shown) [Example 12, 4-[7-{[2-(aminomethyl)-4-methylpentyl]oxy}-2-(4-amino-1,2,5-oxadiazol-3-yl)-1-ethyl-1H-imidazo[4,5-c]pyridin-4-yl]-2-methyl-3-butyn-2-ol]
solubility [1]: 164 µM (≈ 72.4 µg/mL) | IC50 [2]: 26.4 µM | IC50 [3]: 0.556 µM | IC50 [4]: 0.081 µM

CCCCC(CN)COc1cnc(C#CC(C)(C)O)c2nc(-c3nonc3N)n(CC)c12 (stereo not shown) [Example 13, 4-[7-{[2-(aminomethyl)hexyl]oxy}-2-(4-amino-1,2,5-oxadiazol-3-yl)-1-ethyl-1H-imidazo[4,5-c]pyridin-4-yl]-2-methyl-3-butyn-2-ol]
solubility [1]: 108 µM (≈ 47.7 µg/mL) | IC50 [2]: 6.65 µM | IC50 [3]: 0.088 µM | IC50 [4]: 0.032 µM
